The values that follow come from PMC6333787, “Peptidyl-prolyl isomerase-B is involved in Mycobacterium tuberculosis biofilm formation and a generic target for drug repurposing-based intervention” (NPJ Biofilms and Microbiomes, 2019).

Entries after “also recorded” stand apart in the source; their conditions may differ. Where two headings read alike, the source gives them in different places. Where only a bound is given, the exact number is not on record here.

One experiment relates to E. coli. The settings on record: cited from earlier work. An excerpt:
Acarbose is widely used for the management of type 2 Diabetes mellitus as well. […] There are several bacteria that are invol ...

Experiment [1] relates to M. smegmatis (Ms_VC and Ms_PpiB). The experiment is classed as cell-based, Mycobacterium smegmatis.
In another experiment the test system is M.tb PpiB. In words: Surface plasmon resonance (SPR). The experiment is classed as binding, Mycobacterium tuberculosis. The settings on record: rPpiB immobilised on CM5 sensor chip, PBS, association 300 s, dissociation 150 s. Background: Surface plasmon resonance follows binding to a sensor surface in real time, without labels.
Experiment [2] has as its system M. smegmatis (Ms_VC and Ms_PpiB). The experiment is classed as cell-based, Mycobacterium smegmatis. The source holds these as a separate data set.
Experiment [3] concerns M.smegmatis expressing M.tb PpiB (Ms_PpiB) and vector control (Ms_VC). The experiment is classed as cell-based, Mycobacterium smegmatis.
For experiment [4], the system named is M. smegmatis (Ms_VC and Ms_PpiB). The experiment is classed as cell-based, Mycobacterium smegmatis. The note with it: for bacteriostatic effect at 100 µg/ml: up to 120 h; for Concentration up to which effect is bacteriostatic: 120 h as compared to 72 h; for bacteriostatic or bactericidal effect: M. smegmatis, summary statement.
Experiment [5] has the same test system. The experiment is classed as cell-based, Mycobacterium smegmatis. This is another data set of the same source.
The conditions of experiment [6]: cited from earlier work. An excerpt:
Our next step was to identify suitable drug(s) that could act as an inhibitor of PpiB protein. Developing new drugs is a long process taking about 10–15 years. Drug repurposing is gaining popularity as it allows bypassing of the cumbersome clinical trial of drugs for which the parameters of toxicity and effectiveness have already been tested and approved.

Experiment [7] relates to M. smegmatis (Ms_VC and Ms_PpiB). The settings on record: general statement, no reference given; cited from earlier work.
Experiment [8] has the same test system. The settings on record: general statement, no reference given; cited from earlier work. This is another data set of the same source.
The test system of another experiment is P.aeruginosa. The settings on record: cited from earlier work. An excerpt: The presence of extracellular M.tb within biofilm like structure inside lung lesions of M.tb infected guinea pigs undergoing antibiotic treatment points to the possibility of biofilm formation within the host tissues.[7] Peptidyl-prolyl isomerases (PPIase), popularly known as cyclophilins, are ubiquitously expressed protein foldases which aid in protein folding or refolding by ...

The next experiment has as its system M.tuberculosis H37Rv. The experiment is classed as cell-based, Mycobacterium tuberculosis.
The test system of the next experiment is Candida albicans. The note with it: cited from earlier work.
A further experiment concerns Prokaryotic cyclophilins. The settings on record: cited from earlier work.
The subject of another experiment is C.parapsilosis. The settings on record: cited from earlier work.

As to `C[C@H]1O[C@H](O[C@H]2[C@H](O)[C@@H](O)[C@@H](O[C@H]3[C@H](O)[C@@H](O)C(O)O[C@@H]3CO)O[C@@H]2CO)[C@H](O)[C@@H](O)[C@@H]1N[C@H]1C=C(CO)[C@@H](O)[C@H](O)[C@H]1O` (stereo partly drawn) [Acarbose, acarbose], the “maltose importer block and growth of E. coli” value in the experiment with E. coli is “block maltose importer and consequently suppress growth of E. coli”. Further, in experiment [1] (10 mg/ml, data not shown), the “viability, acarbose 10 mg/ml” value is “no significant effect”. Further, in [1] (M. smegmatis expressing PpiB, alamar blue), the “Threshold concentration at which viability was not significantly affected” value amounted to 1000 µg/mL. Further, the “viability, acarbose up to 1000 µg/ml” value in experiment [1] (up to 1000 µg/ml, Ms_VC or Ms_PpiB) is given as “no effect”. Besides, the SPR interaction result with M.tb PpiB was “interact with M.tb PpiB in a dose dependent manner and bind with high affinity”. Moreover, the “reduction in dosage of anti-TB drugs” value in experiment [2] (co-treatment, isoniazid/ethambutol) is given as “at least two-fold”. The “biofilm formation, induced PpiB tet+” value in experiment [3] is “significant decrease in biofilm formation”. Besides, the “biofilm formation, acarbose 500 µg/ml and above” value in experiment [3] (500 µg/ml and above) was “inhibited biofilm formation”. In addition, the “biofilm formation, uninduced PpiB tet-” value in experiment [3] (Ms_PpiB uninduced by anhydrotetracycline (PpiB tet-)) was “did not exhibit any significant change”. For the same molecule, the “biofilm formation, Ms_VC cells” value in [3] (Ms_VC, presence or absence of agent) is reported as “only basal levels of biofilm formation”. Moreover, the “biofilm formation, 500 and 1000 µg/ml” value in experiment [3] (acarbose 500 and 1000 µg/ml, Ms_PpiB, compared to no acarbose, 7 days) is on record as “significant inhibition in the biofilm formation”. The “biofilm formation, lower concentrations” value in experiment [3] (acarbose at lower concentrations, VC tet- and PpiB tet-, "Hormetic effect") is recorded as “transient increase in biofilm formation”. Further, the “biofilm formation, acarbose upto 100 µg/ml” value in experiment [3] (lower concentration (upto 100 µg/ml)) is listed as “increase in biofilm formation”. For the same molecule, in experiment [4], the “bacteriostatic effect at 100 µg/ml” value is “bacteriostatic effect”, the “Concentration up to which effect is bacteriostatic” value is at most 1000 µg/mL and the “bacteriostatic or bactericidal effect” value is listed as “bacteriostatic effect; also recorded: bacteriostatic activity”. Besides, in [5] (acarbose, data not shown), the “efficacy in decreasing the dosage of ethambutol” value is given as “insignificant”.
For the molecule `Cc1ccc(-c2cc(C(F)(F)F)nn2-c2ccc(S(N)(=O)=O)cc2)cc1` [Celebrex], the “repurposing outcome in patients” value in experiment [6] is on record as “decreasing polyp formation in colon cancer patients”.
Consider `CC[C@@H](CO)NCCN[C@@H](CC)CO` [Ethambutol, ethambutol], for which the “dosage of ethambutol, normally effective” value in experiment [7] was 1 µg/mL. The “dosage of ethambutol with cyclosporine-A” value in [5] came out at 4 µg/mL. Besides, in experiment [5] (Fig. 4e, control), the “dosage of ethambutol, control without GaNP” value is 16 µg/mL. Besides, the “dosage of ethambutol, absence of cyclosporine-A” value in experiment [5] (Fig. 4d, PpiB tet+, 68 h) is 16 µg/mL. The “dosage of ethambutol with GaNP” value in experiment [5] (GaNP 50 µg/ml, Fig. 4e) came out at 1 µg/mL.
Turning to `NNC(=O)c1ccncc1` [Isoniazid, isoniazid], in experiment [2], the “dosage of isoniazid with cyclosporine-A” value amounted to 32 µg/mL and the “fold decrease in dosage of isoniazid” value is given as 2–4 fold. Further, the “dosage of isoniazid, absence of cyclosporine-A” value in experiment [2] (Fig. 4a, PpiB tet+ biofilm, 7 days then 68 h isoniazid) was found to be 64 µg/mL. In addition, in experiment [2] (Fig. 4b, PpiB (tet+), 68 h), the “dosage of isoniazid, absence of acarbose” value amounted to 64 µg/mL. In addition, the “dosage of isoniazid with GaNP” value in experiment [2] (GaNP 50 µg/ml, Fig. 4c, 68 h) was 16 µg/mL. In addition, in experiment [2] (acarbose 500 µg/ml, Fig. 4b, PpiB (tet+), 68 h), the “dosage of isoniazid with acarbose” value stood at 32 µg/mL. In addition, the “dosage of isoniazid, normally effective” value in experiment [8] was 16 µg/mL.
In the case of `CCN(CC)CCCC(C)Nc1ccnc2cc(Cl)ccc12` (stereo not drawn) [chloroquine], the “repurposing outcome in patients” value in experiment [6] is listed as “improving outcome of cancer drug Erlotinib”.
Turning to `CN(C)C(=N)N=C(N)N` [metformin], the “repurposing outcome in patients” value in [6] is “lowering morbidity of TB patients”.
Take `O=C(Nc1ccc([N+](=O)[O-])cc1Cl)c1cc(Cl)ccc1O` [niclosamide]: the “effect against P.aeruginosa biofilm” value in the experiment with P.aeruginosa is recorded as “inhibitory effects against biofilms formed by P.aeruginosa”.
For the molecule cyclosporine-A, in the experiment on M.tuberculosis H37Rv, the “biofilm formation in H37Rv, cyclosporine-A” value is given as “significant reduction (Fig. 5a) in biofilm formation” and the “effect on H37Rv biofilm formation” value was “disrupted M.tb H37Rv biofilm formation; also recorded: Suppressive effect”. Also, in the experiment with Candida albicans, the “combination with fluconazole against C.albicans biofilms” value is on record as “effective against biofilms formed by C.albicans”, the “sensitisation of C. albicans biofilm to antifungal drugs” value is on record as “sensitises drug-tolerant biofilm of Candida albicans to various antifungal drugs” and the “sensitivity of C.albicans to fluconazole” value is “imparts sensitivity to C.albicans towards fluconazole”. The “affinity for prokaryotic cyclophilins” value in the experiment with Prokaryotic cyclophilins is given as “weak affinity”. Besides, in experiment [1], the “Threshold concentration at which viability was not significantly affected” value is 100 µg/mL and the “viability, cyclosporine-A below 250 µg/ml” value is “insignificant effect”. Also, in the experiment on M.tb PpiB, the SPR interaction result was “interact with M.tb PpiB in a dose dependent manner and bind with high affinity”. Further, in experiment [2], the “reduction in dosage of anti-TB drugs” value is “at least two-fold”. Also, in [3], the “biofilm formation, 100 µg/ml” value is reported as “significant decrease (p < 0.05) in biofilm formation”; the “biofilm formation, 1000 µg/ml” value was “complete inhibition of biofilm formation (p < 0.005)”; the “biofilm formation, Ms_VC cells” value is listed as “only basal levels of biofilm formation”; the “biofilm formation, induced PpiB tet+” value was “significant decrease in biofilm formation”. For the same molecule, the “biofilm formation, uninduced PpiB tet-” value in experiment [3] is listed as “did not exhibit any significant change”. In experiment [4], the “bacteriostatic effect at 100 µg/ml” value was “bacteriostatic effect” and the “Concentration up to which effect is bacteriostatic” value was at most 500 µg/mL. For the same molecule, the “bacteriostatic or bactericidal effect” value in experiment [4] (listed as cyclosporine A) is on record as “bacteriostatic activity”. Moreover, the “bacteriostatic or bactericidal effect” value in experiment [4] (listed as cyclosporine-A) is recorded as “bacteriostatic effect”. Besides, in the experiment on C.parapsilosis, the “synergy with antifungals against C.parapsilosis” value is “acts synergistically to improve the efficacy of antifungals against C.parapsilosis”. Besides, the “decrease in ethambutol dosage with cyclosporine-A” value in experiment [5] was “decreased four-fold”.
